Assay results: US20120225848A1, “Antagonists of GABA-B Receptors to Enhance Neuronal Function, Learning and Memory” (priority 2009, published 2012)

Legend:
[1] = system: dentate gyrus (DG) of hippocampal slices; experiment: LTP of evoked field potentials in dentate gyrus of hippocampal slices; type: cell-based, mouse
[2] = molecular target: T1, Kir3.2-containing potassium channels (Homo sapiens, UniProt P48051); details: Kobayashi et al., 2004; read-out: IC50 for block of Kir3.2 channels; cited from earlier work
T1 sequence (P48051 1-423): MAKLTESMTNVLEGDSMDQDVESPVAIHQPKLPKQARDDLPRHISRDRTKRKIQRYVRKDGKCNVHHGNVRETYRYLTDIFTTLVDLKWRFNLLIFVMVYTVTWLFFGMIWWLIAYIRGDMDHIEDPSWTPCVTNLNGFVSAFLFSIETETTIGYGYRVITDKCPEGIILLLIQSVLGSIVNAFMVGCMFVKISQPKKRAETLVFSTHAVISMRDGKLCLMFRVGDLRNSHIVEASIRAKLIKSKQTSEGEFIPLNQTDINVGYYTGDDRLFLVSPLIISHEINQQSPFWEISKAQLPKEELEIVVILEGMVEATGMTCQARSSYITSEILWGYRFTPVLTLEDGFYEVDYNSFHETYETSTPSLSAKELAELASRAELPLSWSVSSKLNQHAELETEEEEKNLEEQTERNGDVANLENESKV

Ts65Dn hippocampal LTP = details: in vitro system; Kleschevnikov 2004; cited from earlier work
[3] = Body weight during treatment; type: in vivo, mouse; details: 0.5 mg/kg i.p. once a day during 3 weeks; 2N and Ts65Dn mice
Procedure: (§1) Behavioral testing. All mice were exposed to the same series of behavioral tests starting at 2-2.5 months of age. Each mouse was handled for 10 min, twice a day, during the 7 days that preceded testing and for 3 days in between tests. Tests for spontaneous locomotor activity and open field were performed before the drug, during the acute (1 week), and during the chronic (3 weeks) phases of the drug administration. Novel object recognition task with a 24 hours delay was performed during the chronic phase (3 weeks) of the drug administration. All behavioral testing took place during the light cycle between 7:00 a.m. and 7:00 p.m. and was performed at room temperature (22° C.). On the day of testing, the mice were left in their home cages in the experimental room for 2 hours for habituation. To minimize olfactory cues from the previous trial, each apparatus was thoroughly cleaned with 10% ethanol after each animal. CGP55845 (0.5 mg/kg) or equivalent volume of saline was injected intraperitoneally once a day during 3 weeks. Body weight was measured weekly. The body weight was lower in Ts65Dn than in 2N mice, and it was not affected by the treatment (Supplementary FIG. S6). All behavioral tests and procedures were performed by operators who were blind to the genotypes and drug treatment.

[4] = molecular target: presynaptic GABAB receptors; details: Pozza et al., 1999; read-out: IC50 for presynaptic receptors in hippocampal slices; cited from earlier work
[5] = molecular target: postsynaptic GABAB receptors (Homo sapiens, UniProt Q9UBS5); details: Pozza et al., 1999; read-out: IC50 for postsynaptic receptors in hippocampal slices; cited from earlier work
[6] = system: dentate gyrus (DG) of hippocampal slices; experiment: Spontaneous ictal bursts in high-potassium model of epilepsy in hippocampal slices; type: cell-based, mouse; details: 1 μM, extracellular potassium 7.5 mM
From the text: To evaluate more directly the potential effects of GABAB antagonists on epileptic properties of DG neural circuits, we examined spontaneous ictal bursts in hippocampal slices provoked by an increase in extracellular potassium. […] These changes were greater in Ts65Dn than in 2N slices (p<0.05). […] While the mechanism of the effect is yet to be refined, reduced electrochemical potential for potassium ions and the enhancement of feedback inhibition may both play a role.

2N and Ts65Dn mice [7] = experiment: Novel object recognition with 24 h delay; type: in vivo, mouse; details: 0.5 mg/kg i.p. daily, 3 weeks
Procedure: as §1
Novel object recognition. The Bevins and Besheer protocol (Bevins and Besheer, 2006) for two sample objects with one environment was used to study learning and memory with 24 hours delays in 2N and Ts65Dn mice. Before testing, mice were habituated in a black Plexiglas chamber (31×24×27 cm) during 10 min for 2 consecutive days under dim ambient light conditions. Activity of mice during the object recognition task was recorded with a video camera. Two objects (A and B) consistent with height and volume, but different in shape and appearance were used in this test. […] The amount of time spent exploring each object (nose sniffing and head orientation within <1.0 cm) was recorded and evaluated by an operator, who was blind to both the phenotype and the treatment. […]

2N and Ts65Dn mice [8] = experiment: Open field activity; type: in vivo, mouse; details: 0.5 mg/kg i.p. daily, acute (1 week) and chronic (3 weeks)
Procedure: Behavioral testing. All mice were exposed to the same series of behavioral tests starting at 2-2.5 months of age. Each mouse was handled for 10 min, twice a day, during the 7 days that preceded testing and for 3 days in between tests. Tests for spontaneous locomotor activity and open field were performed before the drug, during the acute (1 week), and during the chronic (3 weeks) phases of the drug administration. Novel object recognition task with a 24 hours delay was performed during the chronic phase (3 weeks) of the drug administration. All behavioral testing took place during the light cycle between 7:00 a.m. and 7:00 p.m. and was performed at room temperature (22° C.). […] Body weight was measured weekly. […]
Open field activity. Open field activity was recorded with a video camera in the arena of white squared box (76×76×50 cm) and analyzed with an automated videotracking system EthoVision Pro 3.1 (Noldus Information Technology, Wageningen, The Netherlands). Mice were placed in the center of the open field arena under dim ambient light conditions and activity was monitored for 10 min in a single trial. […] Results were averaged for total distance traveled, number of entries and the time spent in the pre-determined areas (the center of the arena, the periphery, i.e. area extending 12 cm from the center, and the border, which included the four corners).

2N and Ts65Dn mice [9] = experiment: Spontaneous locomotor activity in activity box; type: in vivo, mouse; details: 0.5 mg/kg i.p. daily, acute (1 week) and chronic (3 weeks)
Procedure: as §1, with “The body weight was lower in Ts65Dn than in 2N mice, and it was not affected by the treatment (Supplementary FIG. S6). All behavioral tests and procedures were performed by operators who were blind to the genotypes and drug treatment.” left out
Spontaneous locomotor activity. Spontaneous locomotor activity was monitored using square Plexiglas activity chambers (43.2×43.2×20 cm) and activity monitor software (Med Associates Activity Monitor, version 5.93.773). […] Distance moved, velocity, resting time, and times spent in pre-defined areas of the arena were recorded. […]

GABAB receptor = GABAB receptor (Homo sapiens, UniProt Q9UBS5); details: 1 μM; baclofen 5-10 μM; cited from earlier work
mRNAs for NGF and BDNF = details: Heese et al., 2000; cited from earlier work
[10] = system: dentate gyrus (DG) of hippocampal slices; experiment: Paired-pulse depression of the population spike (feedback inhibition) in DG; type: cell-based, mouse; details: 1 μM, interstimulus interval 30 ms
Procedure: Recording of evoked field potentials. A slice was transferred into the recording submerged chamber and superfused with ACSF at a constant rate of 2.5 ml/min at 32° C. Recording electrodes were made of borosilicate glass capillaries (1B150F, World Precision Instruments, Sarasota, Fla.) and were filled with 2M NaCl (resistance 0.3-0.5 MΩ). Monopolar stimulating electrodes were maid of Pt/Ir wires with diameter 25.4 μm (PTT0110, World Precision Instruments, Sarasota, Fla.) and had 100-μm-long exposed tips. […]
The amplitude of the population spike was measured as follows: 1) a line was drawn at the base of the population spike connecting the first and second peaks of the field response; 2) a second line was drawn at the peak of the population spike (i.e. at the peak of the downward deflection); 3) at the peak of the spike, a line was drawn vertically between these two lines to give the amplitude of the population spike. The magnitude of the field excitatory postsynaptic potential (fEPSP) was measured as the initial slope of the linear part of the fEPSP (latencies 0.1-0.9 ms). […]
Effects of GABAB antagonists on pro-epileptic properties in Ts65Dn DG. […] We evaluated the effect of GABAB antagonists on feedback inhibition by measuring paired-pulse depression of the population spike amplitude (PS2/PS1). […]

[11] = system: dentate gyrus (DG) of hippocampal slices; type: cell-based, mouse; details: 1 μM

Sequence of presynaptic GABAB receptors (Q9UBS5 20-961): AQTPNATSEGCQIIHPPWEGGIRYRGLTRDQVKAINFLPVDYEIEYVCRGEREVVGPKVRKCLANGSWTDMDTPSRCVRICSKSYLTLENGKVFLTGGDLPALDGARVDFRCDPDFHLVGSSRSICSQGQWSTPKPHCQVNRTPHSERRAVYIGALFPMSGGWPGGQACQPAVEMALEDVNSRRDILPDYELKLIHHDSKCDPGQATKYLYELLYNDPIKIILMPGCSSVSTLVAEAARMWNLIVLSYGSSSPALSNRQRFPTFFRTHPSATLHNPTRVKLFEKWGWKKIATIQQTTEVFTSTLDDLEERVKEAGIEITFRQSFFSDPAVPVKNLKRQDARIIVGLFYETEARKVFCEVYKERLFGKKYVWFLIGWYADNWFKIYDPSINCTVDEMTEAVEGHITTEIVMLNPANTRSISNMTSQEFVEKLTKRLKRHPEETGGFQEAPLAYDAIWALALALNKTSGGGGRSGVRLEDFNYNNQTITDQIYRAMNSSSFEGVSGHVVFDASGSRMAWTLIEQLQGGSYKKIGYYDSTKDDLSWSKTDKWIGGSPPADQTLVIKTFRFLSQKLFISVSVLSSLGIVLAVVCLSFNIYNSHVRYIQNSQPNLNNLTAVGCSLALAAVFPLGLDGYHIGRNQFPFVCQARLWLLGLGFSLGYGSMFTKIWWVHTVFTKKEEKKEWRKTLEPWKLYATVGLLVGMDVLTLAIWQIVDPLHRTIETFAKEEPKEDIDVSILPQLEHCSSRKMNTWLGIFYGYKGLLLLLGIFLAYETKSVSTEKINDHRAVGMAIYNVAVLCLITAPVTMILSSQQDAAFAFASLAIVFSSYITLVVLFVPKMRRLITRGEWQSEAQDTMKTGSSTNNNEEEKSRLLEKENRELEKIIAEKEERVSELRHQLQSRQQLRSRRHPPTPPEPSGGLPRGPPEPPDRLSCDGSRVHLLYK
Sequence of presynaptic GABAB receptors (O75899 42-941 partner): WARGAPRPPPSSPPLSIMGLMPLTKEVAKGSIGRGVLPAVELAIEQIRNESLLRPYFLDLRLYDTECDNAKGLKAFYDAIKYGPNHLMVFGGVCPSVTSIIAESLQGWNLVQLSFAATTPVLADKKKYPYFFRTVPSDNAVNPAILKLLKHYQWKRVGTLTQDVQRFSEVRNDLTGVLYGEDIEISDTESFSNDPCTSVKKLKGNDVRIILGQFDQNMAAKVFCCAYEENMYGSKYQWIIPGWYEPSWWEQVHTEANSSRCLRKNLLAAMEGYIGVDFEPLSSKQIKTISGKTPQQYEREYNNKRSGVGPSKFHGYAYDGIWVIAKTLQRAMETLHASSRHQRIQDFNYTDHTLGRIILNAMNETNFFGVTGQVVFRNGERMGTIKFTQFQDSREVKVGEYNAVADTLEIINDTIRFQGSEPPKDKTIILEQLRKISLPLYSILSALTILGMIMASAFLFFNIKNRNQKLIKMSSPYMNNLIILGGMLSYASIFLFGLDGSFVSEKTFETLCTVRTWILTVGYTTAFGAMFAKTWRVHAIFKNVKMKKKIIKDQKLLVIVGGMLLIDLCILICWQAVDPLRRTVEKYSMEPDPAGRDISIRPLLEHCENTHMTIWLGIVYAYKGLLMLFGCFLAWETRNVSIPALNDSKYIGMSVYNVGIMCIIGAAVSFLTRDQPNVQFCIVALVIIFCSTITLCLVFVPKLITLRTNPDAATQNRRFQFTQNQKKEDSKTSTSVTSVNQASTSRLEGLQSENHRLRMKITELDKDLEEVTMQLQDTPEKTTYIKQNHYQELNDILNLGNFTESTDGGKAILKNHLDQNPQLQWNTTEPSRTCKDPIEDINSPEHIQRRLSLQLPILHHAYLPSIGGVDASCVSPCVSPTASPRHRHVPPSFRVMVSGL
Sequence of GABAB receptor (Q9UBS5 20-961): as the sequence (Q9UBS5 20-961) above
Sequence of GABAB receptor (O75899 42-941 partner): as the sequence (O75899 42-941 partner) above
Sequence of postsynaptic GABAB receptors (Q9UBS5 20-961): as the sequence (Q9UBS5 20-961) above
Sequence of postsynaptic GABAB receptors (O75899 42-941 partner): as the sequence (O75899 42-941 partner) above

In the case of CNCCC(Oc1ccc(C(F)(F)F)cc1)c1ccccc1 (stereo not drawn) [fluoxetine], the “effect on LTP” value ([1]; 10 μM, Ts65Dn DG) is listed as “enhanced LTP in the Ts65Dn DG” and the IC50 [2] is listed as roughly 10000 nM.
For picrotoxin, the “deficits in Ts65Dn hippocampal LTP” value (Ts65Dn hippocampal LTP) is given as “reverse”.
With CGP55845 the “effect on LTP” value ([1]; 0.1 μM, Ts65Dn slices) was “enhanced LTP in Ts65Dn”, the “effect on LTP” value ([1]; 1.0 μM, 2N slices) was “enhanced LTP in both Ts65Dn and 2N slices” and the “effect on LTP” value ([1]; 1.0 μM, Ts65Dn slices) was “enhanced LTP in both Ts65Dn and 2N slices”. For the same compound, the body weight [3] was “not affected”, the IC50 [4] was 740 nM and the IC50 [5] was 110 nM. The “frequency of spontaneous ictal bursts” value ([6]; 2N and Ts65Dn DG, p=0.8) was “did not affect”, the “amplitude of burst-associated field potentials” value ([6]; change greater in Ts65Dn than 2N, p<0.01) was “significantly reduced” and the “exploration habits (total time of exploration of objects)” value (2N and Ts65Dn mice [7]; 2N and Ts65Dn mice) was “no effect”. The “improvement of memory in novel object recognition” value (2N and Ts65Dn mice [7]; 2N mice) was “observed only in Ts65Dn mice”, the discrimination index (2N and Ts65Dn mice [7]; Ts65Dn mice vs Ts65Dn vehicle control, p<0.05) was “significantly higher” and the “open field parameters (velocity, distance, time in regions)” value (2N and Ts65Dn mice [8]) was “no significant effect”. For the same compound, the spontaneous locomotor activity (2N and Ts65Dn mice [9]) was “did not affect”.
In the case of C[C@H](NC[C@H](O)CP(=O)(O)Cc1ccccc1)c1ccc(Cl)c(Cl)c1.Cl [CGP 55845A], the “baclofen-induced postsynaptic hyperpolarization and depression of evoked IPSPs and EPSPs” value (GABAB receptor) is listed as “blocks”.
In the case of CCCCP(=O)(O)CCCN [CGP36742], the “levels of mRNAs for NGF and BDNF” value (mRNAs for NGF and BDNF) is listed as “increased”.
For CCOC(OCC)P(=O)(O)CCCNCc1ccc(Cl)c(Cl)c1 [CGP52432], the “effect on LTP” value ([1]; 1.0 μM, Ts65Dn slices) was “enhanced LTP in the Ts65Dn DG”, the PS2/PS1 ratio ([10]; 2N slices, baseline 1.09±0.18) was 0.93±0.25 and the PS2/PS1 ratio ([10]; Ts65Dn slices, baseline 0.71±0.16) was 0.59±0.17. For the same compound, the “NMDA receptor-mediated component of the tetanus-evoked field responses” value [11] was “enhanced the NMDA receptor-mediated responses”, the “NMDA receptor-mediated component of the tetanus-evoked responses” value [11] was “restored to 2N levels” and the tetanus-evoked field responses [11] was “significantly increased”.
